One molecule from US20100028849A1, “NOVEL PROCESS FOR DEVITALIZED/ACELLULAR TISSUE FOR TRANSPLANTATION” (priority 2006, published 2010) can be followed below.

The test system of one assay is S. epidermidis. In words: antimicrobial ability of ozone in aqueous solution, plating on agar (CFU). Type of assay: cell-based. To be noted: 5-10 ppm ozone in sterile water; for Final (CFU/mL): initial inoculum 2.1 × 10^8 CFU/mL. The protocol: S. epidermidis was subjected to 5-10 ppm ozone in sterile water, followed by plating the organisms onto agar plates and placing the plates in a 37° C. incubator.

Assay [1] deals with human skin (epidermis and dermis intact) tissue cells. Nature of the assay: alamarBlue viability assay of human skin exposed to ozone. Type of assay: cell-based. As to conditions: 60 minutes of ozone exposure in sterile normal saline with agitation; 5-20 ppm, 4 C to 25 C. From the text:
This example measured the effect of ozone on human skin. Human skin (epidermis and dermis intact) was exposed to ozone for various lengths of time. Ozone was pumped through an aqueous solution (sterile normal saline) obtaining levels between 5 and 20 ppm at temperatures between 4 C and 25 C. An alamarBlue™ viability assay, which is supplied by Invitrogen Corporation of Carlsbad, Calif., was used to quantify viability of the tissue cells. The alamarBlue™ dye is reduced by metabolic intermediates within a cell; reduction of the dye is then measured spectrophotometrically.
To perform the alamarBlue™ assay, human skin was sectioned into 6 mm diameter discs and placed individually into wells of a 24-well tissue culture plate. To each sample, 10% alamarBlue™ reagent in RPMI-1640 was added. The plate was incubated at 37° C. on an orbital shaker for 4 hours. Each well was then sampled in triplicate to a 96-well assay plate. The absorbance of the plate was measured at 600 nm and 570 nm, where the […]. The absorbencies were then used to calculate the percent reduction of alamarBlue™ dye, as follows: […]

Take `O=[O+][O-]` [Ozone, ozone]: the “Log Reduction” value in the assay on S. epidermidis (2.5 min exposed to ozone), with S. epidermidis (5 min exposed to ozone), in the assay on S. epidermidis (7.5 min exposed to ozone), with S. epidermidis (10 min exposed to ozone) and with S. epidermidis (20 min exposed to ozone) was 8 log in each case. Moreover, the “Final (CFU/mL)” value in the assay with S. epidermidis (2.5 min exposed to ozone), in the assay with S. epidermidis (5 min exposed to ozone), in the assay on S. epidermidis (7.5 min exposed to ozone), with S. epidermidis (10 min exposed to ozone) and in the assay on S. epidermidis (20 min exposed to ozone) was 0 CFU/mL throughout. The “log reduction in colony forming units (CFU)” value in the assay on S. epidermidis (at 2.5 minutes or longer, total kill of microbes) stood at 8 log. In addition, the “viability of the tissue cells (percent reduction of alamarBlue dye)” value in assay [1] is on record as “death of the cells within the skin”.
